How the values were obtained:
[1] = Guest molecule concentration after incubation in initial medium without polymer (Comparative Example 1); format: physicochemical; settings: 37° C.
In short: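 Dissolved guest content measured by HPLC of centrifuged supernatants (37° C., 13000 rpm, 5 min) sampled at 0.5 h, 3 h and 6 h. Incubation was polymer-free at 37° C.±0.5° C. in buffers of pH 2.0-7.4; nominal loading was set by maximum clinical dose.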

[2] = Binary supramolecular self-assembly systems of polymer and target: guest concentration over incubation time (Comparative Example 2); format: physicochemical; settings: for Concentration of guest molecule in solution / Times that of the initial medium: 6 h
Experimental: Experiments were conducted according to the steps in Comparative Example 1, and quantitative analysis was carried out using the analytical method for each target to investigate the regulation ability […] stacking.

[3] = Binary (carrier), ternary and quaternary supramolecular self-assembly systems of polymer, carrier building block and target: guest concentration over incubation time (Examples 1-56); format: physicochemical
Experimental: pH 2.0 hydrochloric acid, pH 4.5 acetate, and pH 6.5, pH 6.8, or pH 7.4 phosphate buffer solutions were prepared. The selection of each initial medium followed the principle that the solubility in the initial medium of the selected targets (or active ingredients) should low enough, but should meet the detection sensitivity and accuracy requirements of the corresponding analytical methods. Each buffer as initial media was placed in a 50 ml test tube with a stopper, shaken in a constant temperature air shaker at 37° C.±0.5° C., with an amplitude of 200 rpm, and incubated for 1 hour. […] Samples were taken at 0.5 h, 3 h and 6 h after incubation, centrifuged at 37° C., 13000 rpm for 5 minutes, and the supernatant was diluted at least 10 times with the mobile phase under the target analyte analytical method, filtered, the initial filtrate was discarded, and the continued filtrate was used as the test solution for injection analysis. The corresponding HPLC method under each target object item in Table 8 was used to determine the content of each target substance. When the solubility of the target in the initial medium is below the quantitative limit of the analytical method, a small amount of surfactant, such as sodium dodecyl sulfate (SDS), Tween20, or Tween80, can be added appropriately.
Experiments were conducted according to the steps in Comparative Example 1, and quantitative analysis was carried out using the analytical method for each target to investigate the regulation ability of each binary supramolecular self-assembly system built from 0.5% polymer and target on guest molecules stacking.
Ternary supramolecular self-assembly systems based on different polymers, carrier building blocks, and targets were built according to the experimental scheme in Table 12, to investigate the influence of synergistic regulation of the carrier building blocks and the polymers on the stacking of target molecules, as well as the stability of the supramolecular self-assembly systems jointly built by them over incubation time. The initial medium, quantitative analysis method, pre-treatment method, and initial theoretical concentration of the target, corresponding to each target molecule in the experiment, were consistent with those in Comparative Examples 1 and 2. After a target was added to the system, the target was uniformly dispersed by ultrasonication at 37° C. for half an hour and then shaken in a 37° C. constant temperature air shaker, and samples were collected after different incubation time, i.e. 0.5 h, 1 h, 2 h, 3 h, 4 h, and 6 h.

[4] = cited from earlier work
[5] = binary system with 0.5% polymer 101, incubation 0.5 h
[6] = binary system with 0.5% polymer 101, incubation 3 h
[7] = binary system with 0.5% polymer 101, incubation 6 h
[8] = binary system with 0.5% polymer 102, incubation 0.5 h
[9] = binary system with 0.5% polymer 102, incubation 3 h
[10] = binary system with 0.5% polymer 102, incubation 6 h
[11] = binary system with 0.5% polymer 103, incubation 0.5 h
[12] = binary system with 0.5% polymer 103, incubation 3 h
[13] = binary system with 0.5% polymer 103, incubation 6 h
[14] = binary system with 0.5% polymer 106, incubation 0.5 h
[15] = binary system with 0.5% polymer 106, incubation 3 h
[16] = binary system with 0.5% polymer 106, incubation 6 h
[17] = binary system with 0.5% polymer 107, incubation 0.5 h
[18] = binary system with 0.5% polymer 107, incubation 3 h
[19] = binary system with 0.5% polymer 107, incubation 6 h
[20] = quaternary: 202 (102H+107) + 0.5% 301, 6 h
[21] = quaternary: 202 (102H+107) + 0.5% 302, 6 h
[22] = quaternary: 204 (102H+103E5) + 0.5% 301, 6 h
[23] = quaternary: 204 (102H+103E5) + 0.5% 302, 6 h
[24] = ternary: 0.25% 102H + 0.5% 301, 6 h
[25] = ternary: 0.25% 102H + 0.5% 302, 6 h

In the case of CCCCC1OC(=O)c2ccccc21 (stereo not shown) [Butylphthalide], the “Concentration of guest molecule measured after different incubated time” value (“Concentration … after different incubated time” for short) ([1]; 0.5 h, pH 6.5 phosphate buffer) is reported as 252.2 µg/mL, the “Concentration … after different incubated time” value ([1]; 3 h, pH 6.5 phosphate buffer) is reported as 246.4 µg/mL and the “Concentration … after different incubated time” value ([1]; 6 h, pH 6.5 phosphate buffer) is reported as 246.0 µg/mL. For the same compound, the “Concentration of the target in the solution measured after different incubation time” value (shortened to “Concentration … after different incubation time”) [2, 5] was 555.9 µg/mL, the “Concentration … after different incubation time” value [2, 6] was 229.5 µg/mL and the “Concentration … after different incubation time” value [2, 7] was 230.7 µg/mL. The “Concentration … after different incubation time” value [2, 8] was 258.9 µg/mL, the “Concentration … after different incubation time” value [2, 9] was 245.3 µg/mL and the “Concentration … after different incubation time” value [2, 10] was 244.5 µg/mL. The “Concentration … after different incubation time” value [2, 11] was 234.7 µg/mL, the “Concentration … after different incubation time” value [2, 12] was 230.8 µg/mL and the “Concentration … after different incubation time” value [2, 13] was 233.8 µg/mL. The “Concentration … after different incubation time” value [2, 14] was 240.7 µg/mL, the “Concentration … after different incubation time” value [2, 15] was 244.6 µg/mL and the “Concentration … after different incubation time” value [2, 16] was 241.9 µg/mL. For the same compound, the “Concentration … after different incubation time” value [2, 17] was 242.4 µg/mL, the “Concentration … after different incubation time” value [2, 18] was 240.0 µg/mL and the “Concentration … after different incubation time” value [2, 19] was 243.7 µg/mL. The “Concentration … after different incubation time” value ([2]; binary system with 0.5% polymer 110, incubation 0.5 h) was 240.5 µg/mL, the “Concentration … after different incubation time” value ([2]; binary system with 0.5% polymer 110, incubation 3 h) was 253.9 µg/mL and the “Concentration … after different incubation time” value ([2]; binary system with 0.5% polymer 110, incubation 6 h) was 252.1 µg/mL. For the same compound, the “Concentration of guest molecule in solution” value ([3]; ternary: 0.25% 102M + 0.25% 313, 2 h) was 480.3 µg/mL, the “Concentration of guest molecule in solution” value ([3]; ternary: 0.25% 102M + 0.25% 313, 6 h) was 650.6 µg/mL and the “Concentration of guest molecule in solution” value ([3]; ternary: 0.25% 102M + 0.25% 313, 10 h) was 1026.3 µg/mL. For the same compound, the “Concentration of guest molecule in solution” value ([3]; ternary: 0.25% 102M + 0.25% 314, 2 h) was 1103.4 µg/mL, the “Concentration of guest molecule in solution” value ([3]; ternary: 0.25% 102M + 0.25% 314, 6 h) was 406.8 µg/mL and the “Concentration of guest molecule in solution” value ([3]; ternary: 0.25% 102M + 0.25% 318, 2 h) was 521.5 µg/mL. For the same compound, the “Concentration of guest molecule in solution” value ([3]; ternary: 0.25% 102M + 0.25% 318, 6 h) was 754.1 µg/mL, the “Concentration of guest molecule in solution” value ([3]; ternary: 0.25% 102M + 0.25% 318, 10 h) was 1310.2 µg/mL and the “Concentration of guest molecule in solution” value ([3]; ternary: 0.25% 102M + 0.25% 319, 2 h) was 413.5 µg/mL. For the same compound, the “Concentration of guest molecule in solution” value ([3]; ternary: 0.25% 102M + 0.25% 319, 6 h) was 643.7 µg/mL, the “Concentration of guest molecule in solution” value ([3]; ternary: 0.25% 102M + 0.25% 319, 10 h) was 1125.6 µg/mL and the “LogD7.4 or Log P” value [4] was 3.36.
For CNC(=O)c1cc(Oc2ccc(NC(=O)Nc3ccc(Cl)c(C(F)(F)F)c3)cc2)ccn1 [Sorafenib], the “Concentration … after different incubated time” value ([1]; 0.5 h, 0.1% SDS in pH 6.8 phosphate buffer) was 98.5 µg/mL, the “Concentration … after different incubated time” value ([1]; 3 h, 0.1% SDS in pH 6.8 phosphate buffer) was 4.1 µg/mL and the “Concentration … after different incubated time” value ([1]; 6 h, 0.1% SDS in pH 6.8 phosphate buffer) was 4.4 µg/mL. For the same compound, the “Concentration … after different incubation time” value [2, 5] was 741.5 µg/mL, the “Concentration … after different incubation time” value [2, 6] was 751.6 µg/mL and the “Concentration … after different incubation time” value [2, 7] was 759.3 µg/mL. For the same compound, the “Concentration … after different incubation time” value [2, 8] was 770.6 µg/mL, the “Concentration … after different incubation time” value [2, 9] was 151.8 µg/mL and the “Concentration … after different incubation time” value [2, 10] was 102.9 µg/mL. For the same compound, the “Concentration … after different incubation time” value [2, 11] was 602.5 µg/mL, the “Concentration … after different incubation time” value [2, 12] was 61.5 µg/mL and the “Concentration … after different incubation time” value [2, 13] was 38.5 µg/mL. For the same compound, the “Concentration … after different incubation time” value ([2]; binary system with 0.5% polymer 104, incubation 0.5 h) was 108.9 µg/mL, the “Concentration … after different incubation time” value ([2]; binary system with 0.5% polymer 104, incubation 3 h) was 4.3 µg/mL and the “Concentration … after different incubation time” value ([2]; binary system with 0.5% polymer 104, incubation 6 h) was 3.7 µg/mL. The “Concentration … after different incubation time” value [2, 14] was 765.3 µg/mL, the “Concentration … after different incubation time” value [2, 15] was 571.3 µg/mL and the “Concentration … after different incubation time” value [2, 16] was 310.3 µg/mL. The “Concentration … after different incubation time” value [2, 17] was 784.3 µg/mL, the “Concentration … after different incubation time” value [2, 18] was 432.2 µg/mL and the “Concentration … after different incubation time” value [2, 19] was 244.4 µg/mL. The “Concentration of guest molecule in solution” value ([2]; binary: 0.5% 102H) was 102.9 µg/mL, the “Times that of the initial medium” value ([2]; binary: 0.5% 102H) was 18.4 times and the “Average concentration of guest molecule in solution” value ([2]; binary: 0.5% 102H, within 4 to 6 hours) was 110 µg/mL. For the same compound, the “Concentration of guest molecule in solution” value ([2]; binary: 0.5% 103E5) was 33.4 µg/mL, the “Times that of the initial medium” value ([2]; binary: 0.5% 103E5) was 6.0 times and the “Concentration of guest molecule in solution” value ([2]; binary: 0.5% 107) was 171.6 µg/mL. For the same compound, the “Times that of the initial medium” value ([2]; binary: 0.5% 107) was 30.6 times, the “Concentration of guest molecule in solution” value [3, 20] was 512.2 µg/mL and the “Times that of the initial medium” value [3, 20] was 91.3 times. For the same compound, the “Concentration of guest molecule in solution” value [3, 21] was 572.8 µg/mL, the “Times that of the initial medium” value [3, 21] was 102.1 times and the “Concentration of guest molecule in solution” value [3, 22] was 543.3 µg/mL. For the same compound, the “Times that of the initial medium” value [3, 22] was 96.8 times, the “Concentration of guest molecule in solution” value [3, 23] was 431.5 µg/mL and the “Times that of the initial medium” value [3, 23] was 76.9 times. The “Concentration of guest molecule in solution” value [3, 24] was 609.8 µg/mL, the “Times that of the initial medium” value [3, 24] was 108.7 times and the “Concentration of guest molecule in solution” value [3, 25] was 644.6 µg/mL. For the same compound, the “Times that of the initial medium” value [3, 25] was 115 times, the “Concentration of guest molecule in solution” value ([3]; ternary: 102H + 310, carrier % not stated, 6 h) was 65.6 µg/mL and the “Concentration of guest molecule in solution” value ([3]; ternary: 102H + 310, 2 h) was 903.1 µg/mL. For the same compound, the “Concentration of guest molecule in solution” value ([3]; ternary: 102H + 311, 4 h) was 804.8 µg/mL, the “Concentration of guest molecule in solution” value ([3]; ternary: 102H + 311, 6 h) was 246.9 µg/mL and the “Concentration of guest molecule in solution” value ([3]; ternary: 102H + 313, carrier % not given, 6 h) was 634.8 µg/mL. The “Concentration of guest molecule in solution” value ([3]; ternary: 102H + 313, 4 h) was 884.2 µg/mL, the “Concentration of guest molecule in solution” value ([3]; ternary: 102H + 318, carrier % not stated, 6 h) was 115.4 µg/mL and the “Concentration of guest molecule in solution” value ([3]; ternary: 102H + 318, 2 h) was 778.1 µg/mL. For the same compound, the “LogD7.4 or Log P” value [4] was 4.34.
